# How the values were obtained:
# [1] = biological target: T1, Protein kinase Pfmrk (Plasmodium falciparum, UniProt P90584); assay: Inhibition of Plasmodium falciparum Pfmrk
# T1 sequence (P90584 whole entry): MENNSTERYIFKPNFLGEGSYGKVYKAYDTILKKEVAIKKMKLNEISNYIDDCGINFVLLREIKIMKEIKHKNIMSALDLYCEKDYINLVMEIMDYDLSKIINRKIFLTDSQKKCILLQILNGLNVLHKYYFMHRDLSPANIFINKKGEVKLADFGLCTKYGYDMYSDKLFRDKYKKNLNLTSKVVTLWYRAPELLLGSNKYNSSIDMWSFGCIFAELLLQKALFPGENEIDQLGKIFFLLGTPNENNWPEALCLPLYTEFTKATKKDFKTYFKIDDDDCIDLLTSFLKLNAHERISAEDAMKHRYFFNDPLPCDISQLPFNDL
# [2] = system: Plasmodium falciparum; assay: Antimalarial activity against drug-resistant Plasmodium falciparum D6; assay type: functional, organism-based
# [3] = system: Plasmodium falciparum; assay: Antimalarial activity against drug-resistant Plasmodium falciparum W2; assay type: functional, organism-based
Structure (SMILES),IC50 [1],IC50 [2],IC50 [3]
O=S(=O)(NCCNC/C=C/c1ccc(Br)cc1)c1cccc2cnccc12,> 500 µM,4.8 µM,2.1 µM
C[C@H]1CNCCN1S(=O)(=O)c1cccc2cnccc12,> 500 µM,> 69 µM,5.4 µM
N=C(N)NCCNS(=O)(=O)c1cccc2cnccc12,> 500 µM,–,–
CNCCNS(=O)(=O)c1cccc2cnccc12,70 µM,> 74 µM,> 37 µM
O=S(=O)(c1cccc2c(I)cccc12)N1CCCNCC1,> 500 µM,–,–
NCCCCNS(=O)(=O)c1cccc2c(Cl)cccc12,> 500 µM,–,–
NCCCCNS(=O)(=O)c1ccc2ccccc2c1,> 500 µM,–,–
NCCNS(=O)(=O)c1cccc2cnccc12,0.7 µM,> 72 µM,> 72 µM
NCCCCCCNS(=O)(=O)c1cccc2c(Cl)cccc12,> 500 µM,8.8 µM,15 µM
O=S(=O)(c1cccc2c(Cl)cccc12)N1CCCNCC1,> 500 µM,–,–
O=S(=O)(c1cccc2cnccc12)N1CCNCC1,> 500 µM,> 36 µM,4.3 µM
O=S(=O)(c1cccc2cnccc12)N1CCCNCC1 [FASUDIL],> 500 µM,–,–

# — ChEMBL document CHEMBL1140676, “Evaluation of broad spectrum protein kinase inhibitors to probe the architecture of the malarial cyclin dependent protein kinase Pfmrk” (Bioorg Med Chem Lett, 2007)
